# Assay results from article PMC4530474, “Carbohydrate scaffolds as glycosyltransferase inhibitors with in vivo antibacterial activity” (Nature Communications, 2015).
# Several values for one entry are separate records, joined by “and”; a condition that tells them apart may be missing. Equal values may be shown once. Entries after “also recorded” stand apart in the source; their conditions may differ.
# What was measured:
# [1] = system: S. aureus; assay: MIC of disaccharide and monosaccharide libraries (Figures 2, 3); settings: Staphylococcus aureus
# Description: (§1) Bacteria were cultured in Brain–Heart Infusion (Bacto laboratories, Cat. no. CM1135B) at 37 °C overnight. […] MICs were determined visually as the lowest concentration showing no visible growth.
# [2] = system: Gram-positive bacteria; assay: MIC of disaccharide library; format: cell-based
# Description: In the second stage, we used the disaccharide structure–activity relationship information to design more synthetically feasible and smaller monosaccharide molecules. A versatile solid-phase method was developed to rapidly synthesize the representatives of three different core chemotypes M1 to M3, starting from a single monosaccharide building block, that is, 1,5-anhydro-galactitol (see Fig. 3). Chemotype M1 explored the option of using only two of the hydrophobic elements, whereas the other two, M2 and M3, used a benzimidazole moiety as the third hydrophobic group (Fig. 3).
# [3] = system: S. pneumoniae MDR, ATCC 700677; assay: MIC determination (broth microdilution); settings: Streptococcus pneumoniae, ATCC700677
# Description: as §1
# [4] = system: S. aureus mMRSA, DRSA, ci; assay: MIC determination (broth microdilution); settings: Staphylococcus aureus
# Description: as §1
# [5] = system: bacterial PG biosynthesis in crude B. megaterium membrane; assay: In vitro PG biosynthesis, [14C]UDP-GlcNAc incorporation into lipid II and PG, TLC; settings: for Accumulation of lipid II / Inhibit of PG: vs no antibiotic
# Description: To elucidate the mode of action of the inhibitors, we conducted various GT enzyme inhibition assays. […] This assay monitors [^14C]UDP-GlcNAc incorporation into lipid II and mature PG, in the presence of different concentrations of antibiotics[39]. Owing to the sequential nature of the glycosyltransfer and transpeptidation, it is not possible to determine at which step PG biosynthesis is blocked in this assay. The low concentration of lipid II can be detected by thin-layer chromatography (TLC) separation and subsequent phosphorimaging of pre-solubilized membranes, which was incubated with the cytoplasmic PG precursors UDP-MurNAc-pentapeptide and UDP-[^14C]GlcNAc[41][42].
# The cell-free particulate fraction of B. megaterium KM (ATCC13632), capable of catalysing the polymerization of PG from UPD-linked precursors was performed as described previously[61]. B. megaterium was grown in standard medium, harvested and washed with Tris-buffer by centrifugation. Resuspended bacteria were subjected to three freeze/thaw cycles (5 min dry ice, followed by 10 min at RT), homogenized by the glass homogenizer and centrifuged all at 4 °C, leaving most of the cell wall in the pellet. […] After separation, plates were dried, exposed to phosphorimaging screen (1 week), scanned by Typhoon 8600 calculating the integrated density value of each band on silica gel. Changes of PG or lipid II were calculated as a percentage from negative control (for more details see Supplementary Methods).
# Inhibition of Lipid II and peptidoglycan biosynthesis
# The cell-free particulate fraction of Bacillus megaterium KM (ATCC13632), capable of catalysing the
# polymerisation of PG from UPD-linked precursors was performed as described previously 19 with some
# modification. Bacillus megaterium was grown in the medium containing tryptone (Difco-Bacto), 1%
# the pH to 7.2. Bacteria were harvested when the density had reached to 0.4 mg dry weight mL-1 and
# washed in the buffer 0.05 M Tris-HCl (pH 7.8) containing 10 mM MgCl2 by centrifugation at 6,000 x g
# for 10 min at 4 °C. All subsequent manipulations were carried out as close to 0 °C as possible.
# bacteria were resuspended in the same buffer at a density of 50 mg dry weight ml-1. Then the bacteria
# were subjected to three freeze/thaw cycles (dry ice for 5 min followed by RT for 10 min).
# freeze/thaw cycles, bacteria were homogenized by using the glass homogenizer at 4 °C (10 min × 2).
# The broken cell suspension was centrifuged at 6,000 x g for 10 min at 4 °C. The supernatant which
# contained the unbroken cells and the majority of the cell walls was kept for further centrifugation.
# [6] = system: S. aureus MRSA, ATCC 43300; assay: MIC determination (broth microdilution); settings: Staphylococcus aureus
# Description: as §1
# [7] = system: S. aureus MSSA, ATCC 25923; assay: MIC determination (broth microdilution); settings: Staphylococcus aureus
# Description: as §1
# [8] = system: S. aureus VRS 1; assay: MIC determination (broth microdilution); settings: Staphylococcus aureus, VRS1
# Description: as §1
# [9] = system: S. aureus NRS 1—GISA; assay: MIC determination (broth microdilution); settings: Staphylococcus aureus, NRS1
# Description: as §1
# [10] = system: S. aureus NRS 17—GISA; assay: MIC determination (broth microdilution); settings: Staphylococcus aureus, NRS17
# Description: as §1
# [11] = system: E. faecium VanA, ATCC 51559; assay: MIC determination (broth microdilution); settings: Enterococcus faecium, ATCC51559
# Description: as §1
# [12] = system: MR S. aureus, VRE; design: method as in PMID 10464005; settings: cited from earlier work
# [13] = design: method as in earlier work; settings: cited from earlier work
# [14] = system: enterococci; design: method as in earlier work; settings: cited from earlier work
# [15] = system: staphylococci; design: method as in earlier work; settings: cited from earlier work
# [16] = system: TG; settings: at 0.1 μg ml^−1; no reference given; cited from earlier work
# [17] = system: S.aureus SG511; settings: no reference given; cited from earlier work
# [18] = system: E. faecalis ATCC 29212; assay: MIC determination (broth microdilution); settings: Enterococcus faecalis, ATCC29212
# Description: as §1
# [19] = system: E. faecium ATCC 35667; assay: MIC determination (broth microdilution); settings: Enterococcus faecium, ATCC35667
# Description: as §1
# [20] = rat, in vivo, iv
# Description: In vitro metabolic stability studies
# (§2) Compounds (1 μM) were incubated at 37 °C with human or mouse liver microsomes. The reaction was
# (§3) initiated by the addition of an NADPH-regenerating system and quenched at various time points over
# (§4) the incubation period by the addition of acetonitrile. Additional samples co-activated by NADP and
# (§5) UDPGA (the co-factor for glucuronidation), were included in the incubation for the qualitative
# (§6) assessment of the potential for glucuronide formation. The relative loss of parent compound and
# (§7) formation of metabolic products was determined by LC/MS using the Q-TOF instrument. The studies
# (§8) were conducted by a contract research organization (Centre for Drug Candidate Organization, Monash
# University, Melbourne, Australia).
# In vivo efficacy and PK studies
# (§9) The in vivo pharmacokinetics of the compounds were studies in overnight-fasted male Sprague Dawley
# (§10) Rats had access to water ad libitum throughout the pre- and post-dose
# (§11) sampling period, and access to food was re-instated 4 hours post-dose. Compounds were
# (§12) administrated IV as a 10 minute constant rate infusion (1.0 mL per rat, n=2 rats). Samples of arterial
# (§13) Arterial blood was collected directly into
# (§14) borosilicate vials (at 4 °C) containing heparin, Complete (a protease inhibitor cocktail), potassium
# (§15) fluoride and EDTA to minimize potential for ex vivo degradation. Once collected, blood samples were
# (§16) centrifuged, supernatant plasma was removed, and plasma concentration of compounds were
# (§17) determined by LCMS (LLQ 0.0014 M). The studies were conducted by a contract research organization
# (§18) (Centre for Drug Candidate Organization, Monash University, Melbourne, Australia).
# [21] = system: E. faecalis VanA, ci; assay: MIC determination (broth microdilution); settings: Enterococcus faecalis
# Description: as §1
# [22] = system: S. aureus (Smith); assay: Mouse model of septicemia
# Description: In vivo Septicaemia mouse model
# Groups of 10 male CD-1 (Crl.) derived mice weighing 22 ± 2 g were used. The mice were inoculated
# of brain-heart infusion broth containing 5% mucin. Compounds were dissolved in 0.05% Tween
# 80/0.9% NaCl. Vehicle and compounds at 50 and 100 mg kg-1 were each administered intraperitoneally
# 10 and/or 180 minutes after S. aureus (Smith) challenge. Ampicillin (0.1 mg kg-1, IP, as positive control
# agent) was administered to test animals at 1 h after the inoculation. Mortality was monitored once
# For the corresponding IV studies compounds at 4 mg kg-1 were dissolved in 10% DMSO/0.1 M HCl/1%
# Tween 80/5% glucose, and compounds were each administered intravenously at 10 min and/or 180
# min after S. aureus (Smith) challenge.
# [23] = in vivo; settings: male, Sprague Dawley, rat, iv, 3.5 mg/kg
# Description: In vitro metabolic stability studies
# as §2, §3, §4, §5, §6, §7, §8
# University, Melbourne, Australia).
# In vivo efficacy and PK studies
# as §9, §10, §11, §12, §13, §14, §15, §16, §17, §18
# [24] = in vivo; settings: male, CD-1, mouse, ip
# Description: In vivo Maximum Tolerated Dose
# (§19) Compound dissolved in 0.05% Tween 80/0.9% NaCl were each administered IP at doses of 20, 60 and
# (§20) 100 mg kg-1 to groups of 2 CD-1 (Crl.) derived male mice weighing 22 ± 2 g. The animals were observed
# (§21) for presence of acute toxic symptoms (mortality, convulsions, tremors, muscle relaxation, sedation,
# (§22) etc.) and autonomic effects (diarrhea, salivation, lacrimation, vasodilation, piloerection, etc.) during
# the first 30 min post-dosing.
# (§23) For the IV studies, compounds were dissolved in 10% DMSO/0.1 M HCl/1% Tween 80/5% Glucose were
# (§24) prepared at a dose of 4 mg kg-1 and were administered intravenously once to groups of 3 CD-1 (Crl.)
# (§25) derived male mice weighing 22 ± 2 g, and monitored and analyzed similar to the IP study during the
# (§26) first 5 min post dosing (IV). In addition, Group 3 and Group 5 were administered intravenously with
# (§27) compounds at 4 mg kg-1 for 2 times (T=0 and T=170 minutes) and the autonomic signs and neurological
# (§28) changes were observed during the first 5 min after the first and the second dose. Mortality was also
# [25] = In vivo maximum tolerated dose, i.p.; settings: mice
# Description: In vivo Maximum Tolerated Dose
# as §19, §20, §21, §22
# the first 30 min post-dosing.
# as §23, §24, §25, §26, §27, §28
# [26] = system: E. faecalis; assay: MIC, chemotype M3 library (Supplementary Table 1); settings: Enterococcus faecalis
# Description: as §1
# [27] = system: Human red blood cells; settings: male, 1 h
# Description: Human male red blood cells were isolated from fresh whole blood sample and washed with phosphate
# buffered saline (PBS) 3 times. Red blood cells were diluted 1/200 with PBS for the haemolysis assay.
# Each compound was assayed at 4 different concentrations in quadruplicate. Control items (100 μM
# tamoxifen and 1% triton X100) were also assayed in quadruplicate. Background was determined with
# 1% DMF. The assay was performed for 1 h at 37 °C. The samples were then centrifuged for 10 min at
# 4°C at 1000 × g, the supernatant was recovered and absorption was measured at 415 nm. Results are
# expressed as the % haemolysis compared to 1% triton X100 after background was subtracted, and
# fitting dose response curve with Prism (GraphPad) to extract HC50 values.
# [28] = microsomes
# Description: In vitro metabolic stability studies
# as §2, §3, §4, §5, §6, §7, §8
# University, Melbourne, Australia).
# In vivo efficacy and PK studies
# as §9, §10, §11, §12, §13, §14
# (§29) fluoride and EDTA to minimize potential for ex vivo degradation. Once collected, blood samples were […]
# determined by LCMS (LLQ 0.0014 M). […]
# [29] = In vivo pharmacokinetics, i.v. administration to male rats; settings: Sprague Dawley, rat, iv, 3.5 mg kg^-1
# Description: In vitro metabolic stability studies
# as §2, §3, §4, §5, §6, §7, §8
# University, Melbourne, Australia).
# In vivo efficacy and PK studies
# as §9, §10, §11, §12, §13, §14, §15, §16, §17, §18
# [30] = system: E. coli ATCC 25922; assay: MIC determination (broth microdilution); settings: Escherichia coli, ATCC25922
# Description: as §1
# [31] = system: S. aureus Newbould 305; assay: MIC determination (Mueller-Hinton agar dilution); format: cell-based; settings: Staphylococcus aureus
# Description: guidelines 23. […] In addition
# The animal experiments were
# To evaluate the dose-response
# [32] = system: S. aureus (Newbould 305, ATCC 29740); assay: Mouse mammary gland infection (mastitis) model
# Description: Each compound was instilled at different doses into the teat canal of both contralateral glands from the fourth mammary gland pair of lactating mice at 4 h after bacterial inoculation.
# The procedure for mouse mammary gland infection has been recently described[64]. CD-1 lactating mice were utilized 12–14 days after giving birth, with pups weaned 1–2 h before bacterial inoculation of the mammary glands. Inoculation of both left (L4) and right (R4) glands of the fourth abdominal mammary gland pair of anesthetized mice with 150 c.f.u. of S. aureus, was done using 32-gauge syringes (blunt needle). The antimicrobial formulation was instilled into the mammary gland of anesthetized mice at 4 h after bacterial inoculation, followed by i.p. administration of postoperative analgesic Buprecare. […] Bacterial c.f.u. counts were obtained after quantification of serial logarithmic dilutions of mammary gland homogenates on TSA. The detection limit (DL) was 1.7 log10 c.f.u. g^−1 gland weight (for more details see Supplementary Methods).
# The actual colony forming units (CFU) of the inocula was confirmed by overnight culture of a serial logarithmic dilution on tryptic soy agar (TSA; Oxoid Limited) plates.
# [33] = system: E. faecium VanB; assay: MIC, chemotype M3 library (Supplementary Table 1); settings: Enterococcus faecium
# Description: as §1
# [34] = molecular target: S. aureus MGT (Staphylococcus aureus, UniProt Q99T05); assay: Inhibition of glycosyltransferase, continuous fluorescence assay with dansyl-Lys lipid II
# Description: Confirmative dose–response assays were subsequently conducted with continuous fluorescent activity assay using a dansyl-labelled, lysine-lipid II substrate[47]. […] The data were fitted to a simple saturation model of inhibitor binding to a single site, from which IC50 values were extracted.
# [35] = system: E. faecium; assay: MIC, chemotype M3 library (Supplementary Table 1); settings: Enterococcus faecium
# Description: as §1
# [36] = system: PBP1 from C. difficile; assay: Glycosyltransferase activity by HPLC, NBD-lipid II; settings: 200 μg ml^−1, NBD-lipid II
# Description: (§30) We then monitored the transformation of fluorescent NBD-lipid II by two different GT enzymes, PBP1 from Clostridium difficile and MGT from S. aureus.
# (§31) 25 °C. The reaction was initiated by addition of glycosyltransferease (2.5 µg mL-1) and terminated by
# (§32) The reaction mixtures were then analysed by a
# (§33) HPLC system (Hitachi) equipped with an anion-exchange column (5 μm, 4.6 × 250 mm, SAX1, Supelco
# (§34) Co.) using a linear gradient of NH4OAc/MeOH (20 mM to 1 M) at a flow rate of 1 mL min-1. The signals
# (§35) were detected with a fluorometer at λex = 355 nm and λem = 460 nm.
# [37] = system: E.coli; assay: MIC, chemotype M3 library (Supplementary Table 1); settings: Escherichia coli
# Description: as §1
# [38] = system: S.aureus MSSA; assay: MIC, chemotype M3 library (Supplementary Table 1); settings: Staphylococcus aureus
# Description: as §1
# [39] = mouse liver microsomes, 1 μM, 37 °C
# Description: In vitro metabolic stability studies
# as §2, §3, §4, §5, §6, §7, §8
# University, Melbourne, Australia).
# In vivo efficacy and PK studies
# as §9, §10, §11, §12, §13, §14, §29
# determined by LCMS (LLQ 0.0014 M). […]
# [40] = molecular target: MGT from S. aureus (Staphylococcus aureus, UniProt Q99T05); assay: Glycosyltransferase activity by HPLC, NBD-lipid II; settings: 200 μg ml^−1, NBD-lipid II
# Description: as §30, §31, §32, §33, §34, §35
# [41] = system: S.aureus MRSA; assay: MIC, chemotype M3 library (Supplementary Table 1); settings: Staphylococcus aureus
# Description: as §1
# [42] = mouse mastitis, intramammary, 4 h after inoculation
# Chain of S. aureus MGT (Q99T05 whole entry): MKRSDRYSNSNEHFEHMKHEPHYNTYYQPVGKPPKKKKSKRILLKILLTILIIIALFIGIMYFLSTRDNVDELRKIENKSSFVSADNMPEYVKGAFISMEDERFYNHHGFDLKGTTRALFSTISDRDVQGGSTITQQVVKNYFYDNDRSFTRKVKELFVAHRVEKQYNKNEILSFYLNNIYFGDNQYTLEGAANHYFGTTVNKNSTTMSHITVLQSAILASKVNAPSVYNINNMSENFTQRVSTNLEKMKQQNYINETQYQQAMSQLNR
# Chain of MGT from S. aureus (Q99T05 whole entry): as above
structure (smiles),measurement,setting,value
NC(CC(=O)NC1C(CO)OCC(NC(=O)Nc2ccc(Cl)c(Cl)c2)C1OC1OC(CO)C(O)C(O)C1NC(=O)Nc1ccc(OC(F)(F)F)cc1)c1ccc(-c2ccccc2)cc1 (stereo not shown) [ACL19378],MIC,[1],2 µg/mL
same,Activity in the presence of serum,[2]; 50% serum,limited activity
same,MIC,[2]; Gram-positive bacteria,~2 µg/mL
"CN[C@H](CC(C)C)C(=O)N[C@H]1C(=O)N[C@@H](CC(N)=O)C(=O)N[C@H]2C(=O)N[C@H]3C(=O)N[C@H](C(=O)N[C@H](C(=O)O)c4cc(O)cc(O)c4-c4cc3ccc4O)[C@H](O)c3ccc(c(Cl)c3)Oc3cc2cc(c3O[C@@H]2O[C@H](CO)[C@@H](O)[C@H](O)[C@H]2O[C@H]2C[C@](C)(N)[C@H](O)[C@H](C)O2)Oc2ccc(cc2Cl)[C@H]1O [Vancomycin, reference compound]",MIC,[3],2 µg/mL
same,MIC,[4],4 µg/mL
same,Accumulation of lipid II,"[5]; 10 μg ml-1, 3 h",36.6 ± 6.2%
same,Inhibit of PG,"[5]; 10 μg ml-1, 3 h",12.8 ± 2.0%
same,Accumulation of lipid II,"[5]; 30 μg ml-1, 3 h",106.8 ± 33.4%
same,Inhibit of PG,"[5]; 30 μg ml-1, 3 h",15.0 ± 3.5%
same,Accumulation of lipid II,"[5]; 100 μg ml-1, 3 h",140.6 ± 30.8%
same,Inhibit of PG,"[5]; 100 μg ml-1, 3 h",21.3 ± 1.4%
same,Accumulation of lipid II,"[5]; 200 μg ml-1, 3 h",151.5 ± 23.1%
same,Inhibit of PG,"[5]; 200 μg ml-1, 3 h",36.0 ± 2.8%
same,MIC,[6],1 µg/mL
same,MIC,[7],1 µg/mL
same,MIC,[8],> 64 µg/mL
same,MIC,[9],4 µg/mL
same,MIC,[10],8 µg/mL
same,MIC,[11],> 64 µg/mL
CCCCCCCCCCCCO[C@H](COP(=O)(O)O[C@H]1O[C@H](C(N)=O)[C@@H](O)[C@H](NC(=O)Nc2ccc(OC(F)(F)F)cc2)[C@H]1O[C@@H]1O[C@H](CO)[C@H](O)[C@H](O)[C@H]1NC(=O)c1cccc(C(F)(F)F)c1)C(=O)O [TS30153],MIC,[12],3.1 – 12.5 μg ml^–1
same,In vivo activity,[13],no in vivo activity
same,MIC,[14],12.5 µg/mL
same,MIC,[15],3.12 µg/mL
CC(=O)N[C@H]1[C@H](O[C@H]2[C@@H](OP(=O)(O)OC[C@@H](OCCC(C)CCCCC(C)(C)CCC(C)CCC(C)CCCC(C)C)C(=O)O)O[C@H](C(N)=O)[C@@](C)(O)[C@@H]2OC(N)=O)O[C@H](CO)[C@@H](O)[C@@H]1O (stereo partly shown) [Disaccharide-degradation product],TG inhibition,[16],45%
same,MIC,[17],> 50 µg/mL
O=C(Nc1ccc(Cl)c(C(F)(F)F)c1)NC1COC(CO)C(n2c(NCc3ccccc3)nc3cc(C(F)(F)F)ccc32)C1O (stereo not shown) [ACL20215],MIC,[18],4 µg/mL
same,MIC,[3],4 µg/mL
same,MIC,[19],16 µg/mL
same,% Dose in urine,[20],< LLQ
same,MIC,[21],8 µg/mL
same,Survival 7 days,"[22]; i.p., 50 mg kg^−1, 10 min after inoculation",100%
same,Survival 7 days,"[22]; i.v., 4 mg kg^−1, 10 min after inoculation",10%
same,Vd,[23],97.2 L/kg
same,half-life,[23],27.2 h
same,clearance,[23]; Blood Cltotal,48.9 mL/min/kg
same,clearance,[23]; Plasma Cltotal,42.1 mL/min/kg
same,MIC,[4],4 µg/mL
same,MTD at 72 h,[24],100 mg/kg
same,Good tolerance up to (dose),[25],60 mg/kg
same,No mortality up to (dose),[25],100 mg/kg
same,Central/autonomic responses,[25]; 100 mg kg^−1,some minor changes to central/autonomic responses
same,Accumulation of lipid II,"[5]; 10 μg ml-1, 3 h",-3.4 ± 12.7%
same,Inhibit of PG,"[5]; 10 μg ml-1, 3 h",0.5 ± 6.7%
same,Accumulation of lipid II,"[5]; 30 μg ml-1, 3 h",17.7 ± 7.1%
same,Inhibit of PG,"[5]; 30 μg ml-1, 3 h",7.9 ± 0.9%
same,Accumulation of lipid II,"[5]; 100 μg ml-1, 3 h",34.9 ± 0.6%
same,Inhibit of PG,"[5]; 100 μg ml-1, 3 h",17.0 ± 1.0%
same,Accumulation of lipid II,"[5]; 200 μg ml-1, 3 h",47.1 ± 2.8%
same,Accumulation of lipid II (in words),[5]; concentration not given,"accumulation of lipid II, although to a lesser extent"
same,MIC,[26],4 µg/mL
same,MIC,[6],4 µg/mL
same,HC50,[27],74 µg/mL
same,Metabolic stability (in vitro),[28],No degradation
same,blood plasma ratio,[29],0.86
same,MIC,[30],> 64 µg/mL
same,MIC,[31],2 µg/mL
same,Glands Cleared,[32]; 200 μg gland-1,0%
same,CFU/g gland,"[32]; 200 μg gland-1, 14 h post treatment",8.36 ± 1.05 log10
same,Glands Cleared,[32]; 400 μg gland-1,0%
same,CFU/g gland,"[32]; 400 μg gland-1, 14 h post treatment",7.77 ± 0.52 log10
same,Glands Cleared,[32]; 800 μg gland-1,0%
same,CFU/g gland,"[32]; 800 μg gland-1, 14 h post treatment",6.60 ± 1.42 log10
same,Glands Cleared,[32]; 1000 μg gland-1,0%
same,CFU/g gland,"[32]; 1000 μg gland-1, 14 h post treatment",5.72 ± 0.63 log10
same,PD50 (50% protective dose),"[32]; mouse mastitis, intramammary",">1,000 μg per gland"
same,PD100 (100% protective dose),"[32]; mouse mastitis, intramammary",">1,000 μg per gland"
same,ED2logc.f.u. (effective dose to reduce bacterial load by 2 × log(c.f.u.)),[32]; [42],730 μg per gland
same,ED4logc.f.u. (effective dose to reduce bacterial load by 4 × log(c.f.u.)),[32]; [42],"1,400 μg per gland"
same,MIC,[33],16 µg/mL
same,IC50,[34],25.8 µM and 26 µM
same,MIC,[35],16 µg/mL
same,Inhibitory effect on GT (single concentration),[36],some inhibition; also recorded: only moderate effect
same,MIC,[7],4 µg/mL
same,MIC,[37],> 64 µg/mL
same,MIC,[38],4 µg/mL
same,MIC,[8],4 µg/mL
same,Metabolic stability (degradation of the compound),[39],no degradation
same,Inhibitory effect on GT (single concentration),[40],some inhibitory effect
same,MIC,[9],4 µg/mL
same,MIC,[41],2 µg/mL
same,MIC,[10],8 µg/mL
same,MIC,[11],8 µg/mL
